Measured values: patent US12655160B2, “KRAS G12D inhibitors” (Mirati Therapeutics, Inc., priority 2020, dated 2026)

Biological target: KRas G12D (Homo sapiens, UniProt P01116, G12D)
Test: KRas G12D Binding Assay (TR-FRET displacement of labeled tracer)
Set-up: corresponding to amino acids 1:169, produced at Array BioPharma Inc; biotin (biotinylated)
Conditions: TR-FRET displacement of Cy5 labelled tracer, Biotinylated GDP-loaded KRAS G12D (amino acids 1:169), 60 minute incubation at 22° C.
Method: This Example illustrates that exemplary compounds of the present invention bind to KRas G12D and are capable of displacing a labeled tracer ligand occupying the KRas G12D binding site. The ability of a compound to bind to KRAS G12D was measured using a TR-FRET displacement assay. Biotinylated GDP-loaded recombinant human KRAS G12D (corresponding to amino acids 1:169, produced at Array BioPharma Inc.) was incubated with a custom-made Cy5 labelled tracer, europium labelled streptavidin and compound (2% DMSO final) in buffer (50 mM HEPES [pH 7.5], 5 mM MgCl2, 0.005% Tween-20 & 1 mM DTT). After a 60 minute incubation at 22° C., the reaction was measured using a PerkinElmer EnVision multimode plate reader via TR-FRET dual wavelength detection, and the percent of control (POC) calculated using a ratiometric emission factor. […] The POC values were fit to a 4-parameter logistic curve and the IC50 value was determined as the concentration where the curve crosses 50 POC.

KRas G12D, sequence (P01116 1-169 isoform P01116-2 G12D): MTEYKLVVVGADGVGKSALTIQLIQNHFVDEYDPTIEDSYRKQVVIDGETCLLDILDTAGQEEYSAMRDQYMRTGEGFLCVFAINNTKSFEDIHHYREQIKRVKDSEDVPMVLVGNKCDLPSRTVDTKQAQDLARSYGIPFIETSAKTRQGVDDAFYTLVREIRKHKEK

Going from `C=C(C)c1cccc2cccc(-c3ncc4c(NCC5(N(C)C)CCC5)nc(OCC56CCCN5C[C@H](F)C6)nc4c3F)c12` (mixture of isomers) [Example 24, N-((1-(dimethylamino)cyclobutyl)methyl)-8-fluoro-2-(((2S,7aR)-2-fluorotetrahydro-1H-pyrrolizin-7a(5H)-yl)methoxy)-7-(8-(prop-1-en-2-yl)naphthalen-1-yl)pyrido[4,3-d]pyrimidin-4-amine] to `Cc1cccc2cccc(-c3ncc4c(NCC5(N(C)C)CCC5)nc(OC[C@@]56CCCN5C[C@H](F)C6)nc4c3F)c12` [Example 2, N-((1-(dimethylamino)cyclobutyl)methyl)-8-fluoro-2-(((2R,7aS)-2-fluorotetrahydro-1H-pyrrolizin-7a(5H)-yl)methoxy)-7-(8-methylnaphthalen-1-yl)pyrido[4,3-d]pyrimidin-4-amine bis(2,2,2-trifluoroacetate)], the IC50 falls from 954 nM to 269 nM (3.5-fold).

`CC(C)c1cccc2cccc(-c3ncc4c(NCC5(N(C)C)CCC5)nc(OCC56CCCN5C[C@H](F)C6)nc4c3F)c12` (mixture of isomers) [Example 25, N-((1-(dimethylamino)cyclobutyl)methyl)-8-fluoro-2-(((2S,7aR)-2-fluorotetrahydro-1H-pyrrolizin-7a(5H)-yl)methoxy)-7-(8-isopropylnaphthalen-1-yl)pyrido[4,3-d]pyrimidin-4-amine] and `CN(C)C1(CNc2nc(OC[C@@]34CCCN3C[C@H](F)C4)nc3c(F)c(-c4cccc5cccc(F)c45)ncc23)CCC1` [Example 22, N-((1-(dimethylamino)cyclobutyl)methyl)-8-fluoro-7-(8-fluoronaphthalen-1-yl)-2-(((2R,7aS)-2-fluorotetrahydro-1H-pyrrolizin-7a(5H)-yl)methoxy)pyrido[4,3-d]pyrimidin-4-amine] are within 1.5-fold of each other in IC50: 1640 nM for the first, 1320 nM for the second.

Going from `CN(C)C1(CNc2nc(OCC34CCCN3C[C@H](F)C4)nc3c(F)c(-c4cccc5cccc(C6CC6)c45)ncc23)CCC1` (mixture of isomers) [Example 26, 7-(8-cyclopropylnaphthalen-1-yl)-N-((1-(dimethylamino)cyclobutyl)methyl)-8-fluoro-2-(((2S,7aR)-2-fluorotetrahydro-1H-pyrrolizin-7a(5H)-yl)methoxy)pyrido[4,3-d]pyrimidin-4-amine] to `CN(C)C1(CNc2nc(OC[C@@]34CCCN3C[C@H](F)C4)nc3c(F)c(-c4cccc5cccc(Cl)c45)ncc23)CCC1` [Example 23, 7-(8-chloronaphthalen-1-yl)-N-((1-(dimethylamino)cyclobutyl)methyl)-8-fluoro-2-(((2R,7aS)-2-fluorotetrahydro-1H-pyrrolizin-7a(5H)-yl)methoxy)pyrido[4,3-d]pyrimidin-4-amine], the IC50 rises from 344 nM to 583 nM (1.7-fold). The first is the more potent here.

First: CN(C)CCNc1nc(OC[C@@]23CCCN2C[C@H](F)C3)nc2c(F)c(-c3cc(O)cc4ccccc34)ncc12 (racemic) [Example 39, 4-(4-((2-(dimethylamino)ethyl)amino)-8-fluoro-2-(((2S,7aR)-2-fluorotetrahydro-1H-pyrrolizin-7a(5H)-yl)methoxy)pyrido[4,3-d]pyrimidin-7-yl)naphthalen-2-ol bis(2,2,2-trifluoroacetate)]
Second: CN(C)C1(CNc2nc(OC[C@@]34CCCN3C[C@H](F)C4)nc3c(F)c(-c4cc(O)cc5ccccc45)ncc23)CC1 [Example 6, 4-(4-(((1-(dimethylamino)cyclopropyl)methyl)amino)-8-fluoro-2-(((2R,7aS)-2-fluorotetrahydro-1H-pyrrolizin-7a(5H)-yl)methoxy)pyrido[4,3-d]pyrimidin-7-yl)naphthalen-2-bis(2,2,2-trifluoroacetate)]
The IC50 of the first is 4.5-fold higher: 521 nM for the first, 117 nM for the second.

Compared with `CN(C)C1(CNc2nc(OC[C@@]34CCCN3C[C@H](F)C4)nc3c(F)c(-c4cccc5cccc(C(F)(F)F)c45)ncc23)CCC1` [Example 3, N-((1-(dimethylamino)cyclobutyl)methyl)-8-fluoro-2-(((2R,7aS)-2-fluorotetrahydro-1H-pyrrolizin-7a(5H)-yl)methoxy)-7-(8-(trifluoromethyl)naphthalen-1-yl)pyrido[4,3-d]pyrimidin-4-amine], `CC#Cc1cccc2cccc(-c3ncc4c(NCC5(N(C)C)CCC5)nc(OC[C@@]56CCCN5C[C@H](F)C6)nc4c3F)c12` [Example 27, N-((1-(dimethylamino)cyclobutyl)methyl)-8-fluoro-2-(((2R,7aS)-2-fluorotetrahydro-1H-pyrrolizin-7a(5H)-yl)methoxy)-7-(8-(prop-1-yn-1-yl)naphthalen-1-yl)pyrido[4,3-d]pyrimidin-4-amine] is 7.9-fold higher in IC50: 239 nM for the first, 1880 nM for the second. The first is the more potent here.

Compared with `Oc1cc(-c2ncc3c(NCC4(N5CCOCC5)CCC4)nc(OC[C@@]45CCCN4C[C@H](F)C5)nc3c2F)c2ccccc2c1` [Example 4, 4-(8-fluoro-2-(((2R,7aS)-2-fluorotetrahydro-1H-pyrrolizin-7a(5H)-yl)methoxy)-4-(((1-morpholinocyclobutyl)methyl)amino)pyrido[4,3-d]pyrimidin-7-yl)naphthalen-2-ol], `CN(C)C1(CNc2nc(OC[C@@]34CCCN3C[C@H](F)C4)nc3c(F)c(-c4cc(O)cc5ccccc45)ncc23)CCCCC1` [Example 30] is 1.6-fold higher in IC50: 958 nM for the first, 1580 nM for the second. The first is the more potent here.

Going from `CN1CCC[C@H]1COc1nc(NC2C3CNCC32)c2cnc(-c3cc(O)cc4ccccc34)c(F)c2n1` (stereo partly drawn) [Example 5, 4-(4-((3-azabicyclo[3.1.0]hexan-6-yl)amino)-8-fluoro-2-(((S)-1-methylpyrrolidin-2-yl)methoxy)pyrido[4,3-d]pyrimidin-7-yl)naphthalen-2-ol bis(2,2,2-trifluoroacetate)] to `CN1CCC[C@H]1COc1nc(NCC2(N(C)C)CCC2)c2cnc(-c3cc(O)cc4ccccc34)c(F)c2n1` [Example 11, (S)-4-(4-(((1-(dimethylamino)cyclobutyl)methyl)amino)-8-fluoro-2-((1-methylpyrrolidin-2-yl)methoxy)pyrido[4,3-d]pyrimidin-7-yl)naphthalen-2-ol bis(2,2,2-trifluoroacetate)], the IC50 falls from 2260 nM to 98 nM (23-fold). The second is the more potent here.

First: CC(C)c1ccccc1-c1ncc2c(NCC3(N(C)C)CCC3)nc(OCC34CCCN3CCC4)nc2c1F [Example 9, N-((1-(dimethylamino)cyclobutyl)methyl)-8-fluoro-7-(2-isopropylphenyl)-2-((tetrahydro-1H-pyrrolizin-7a(5H)-yl)methoxy)pyrido[4,3-d]pyrimidin-4-amine bis(2,2,2-trifluoroacetate)]
Second: CC(C)c1ccccc1-c1ncc2c(NCC3(N(C)C)CCC3)nc(OC[C@@]34CCCN3C[C@H](F)C4)nc2c1F [Example 10, N-((1-(dimethylamino)cyclobutyl)methyl)-8-fluoro-2-(((2R,7aS)-2-fluorotetrahydro-1H-pyrrolizin-7a(5H)-yl)methoxy)-7-(2-isopropylphenyl)pyrido[4,3-d]pyrimidin-4-amine bis(2,2,2-trifluoroacetate)]
The IC50 of the first is 1.7-fold lower: 2170 nM for the first, 3720 nM for the second.

Compared with `Cc1cc2[nH]ncc2c(-c2ncc3c(NCC4(N(C)C)CCC4)nc(OC[C@@]45CCCN4C[C@H](F)C5)nc3c2F)c1Cl` [Example 12, 7-(5-chloro-6-methyl-1H-indazol-4-yl)-N-((1-(dimethylamino)cyclobutyl)methyl)-8-fluoro-2-(((2R,7aS)-2-fluorotetrahydro-1H-pyrrolizin-7a(5H)-yl)methoxy)pyrido[4,3-d]pyrimidin-4-amine bis(2,2,2-trifluoroacetate)], `Cc1c(Cl)cc2[nH]ncc2c1-c1ncc2c(NCC3(N(C)C)CCC3)nc(OC[C@@]34CCCN3C[C@H](F)C4)nc2c1F` [Example 13, 7-(6-chloro-5-methyl-1H-indazol-4-yl)-N-((1-(dimethylamino)cyclobutyl)methyl)-8-fluoro-2-(((2R,7aS)-2-fluorotetrahydro-1H-pyrrolizin-7a(5H)-yl)methoxy)pyrido[4,3-d]pyrimidin-4-amine bis(2,2,2-trifluoroacetate)] is 1.6-fold higher in IC50: 100 nM for the first, 165 nM for the second. The first is the more potent here.

First: CN(C)C1(CNc2nc(OCC34CCCN3CCC4)nc3c(F)c(-c4cccc5cccc(F)c45)ncc23)CCC1 [Example 14, N-((1-(dimethylamino)cyclobutyl)methyl)-8-fluoro-7-(8-fluoronaphthalen-1-yl)-2-((hexahydro-1H-pyrrolizin-7a-yl)methoxy)pyrido[4,3-d]pyrimidin-4-amine]
Second: CN(C)C1(CNc2nc(OCC34CCCN3CCC4)nc3c(F)c(-c4cccc(Cl)c4C4CC4)ncc23)CCC1 [Example 16, 7-(3-chloro-2-cyclopropylphenyl)-N-((1-(dimethylamino)cyclobutyl)methyl)-8-fluoro-2-((tetrahydro-1H-pyrrolizin-7a(5H)-yl)methoxy)pyrido[4,3-d]pyrimidin-4-amine]
The IC50 of the first is 2.1-fold higher: 306 nM for the first, 146 nM for the second. The second is the more potent here.

First: CC(C)(O)CNc1nc(OC[C@@]23CCCN2C[C@H](F)C3)nc2c(F)c(-c3cccc4cccc(Cl)c34)ncc12 [Example 15, 1-((7-(8-chloronaphthalen-1-yl)-8-fluoro-2-(((2R,7aS)-2-fluorotetrahydro-1H-pyrrolizin-7a(5H)-yl)methoxy)pyrido[4,3-d]pyrimidin-4-yl)amino)-2-methylpropan-2-ol]
Second: CN(CC1(N(C)C)CCC1)c1nc(OC[C@@]23CCCN2C[C@H](F)C3)nc2c(F)c(-c3cc(O)cc4ccccc34)ncc12 [Example 28]
The IC50 of the first is 5.2-fold higher: 3150 nM for the first, 609 nM for the second.

`C[C@H]1CNC[C@@H]1Nc1nc(OCC23CCCN2CCC3)nc2c(F)c(-c3cc(O)cc4ccccc34)ncc12` [Example 19, 4-(8-fluoro-4-(((3R,4S)-4-methylpyrrolidin-3-yl)amino)-2-((tetrahydro-1H-pyrrolizin-7a(5H)-yl)methoxy)pyrido[4,3-d]pyrimidin-7-yl)naphthalen-2-ol] showed an IC50 of 245 nM.
